Measurements from patent US8889370B2, “Method of determining inhibitors of coagulation” (Siemens Healthcare Diagnostics Products GmbH, priority 2010, dated 2014).
Where two headings read alike, the source gives them in different places.

Molecular target: T1, factor Xa (Homo sapiens, UniProt P00742)
T1 construct: an F Xa reagent consisting of a lyophilized plasma fraction containing factor Xa; purchased Siemens Healthcare Diagnostics (Berichrom heparin assay, F Xa reagent); host or cells: plasma fraction
T1 sequence (P00742 235-488 limits assumed): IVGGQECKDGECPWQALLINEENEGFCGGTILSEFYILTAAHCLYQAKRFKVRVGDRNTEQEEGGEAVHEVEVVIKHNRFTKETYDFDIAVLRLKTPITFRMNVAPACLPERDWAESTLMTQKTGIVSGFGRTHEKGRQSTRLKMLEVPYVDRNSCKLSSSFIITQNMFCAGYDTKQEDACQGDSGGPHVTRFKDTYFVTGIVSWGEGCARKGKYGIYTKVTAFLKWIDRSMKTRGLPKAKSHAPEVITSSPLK
T1 sequence (P00742 41-179 partner limits assumed): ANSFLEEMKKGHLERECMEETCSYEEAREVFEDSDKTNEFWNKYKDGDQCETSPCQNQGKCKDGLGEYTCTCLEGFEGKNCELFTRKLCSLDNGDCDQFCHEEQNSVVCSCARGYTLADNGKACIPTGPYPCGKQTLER
Assay: Determination of the F Xa binding constant (Ki) of peptide aldehyde ligands, chromogenic assay with Berichrom heparin assay reagents, Dixon plot
Assay type: biochemical
Experimental: The kinetic data of the peptide aldehyde ligands were determined in chromogenic assay formats by measuring the rate of hydrolysis of chromogenic peptide substrates which compete with the peptide aldehyde ligands for binding to the active site of the particular enzyme, at various substrate concentrations and peptide aldehyde-ligand concentrations. The binding constant (Ki) was determined by a known method (Dixon, M., 1953, Biochem J, 55, 170-171).
The F Xa binding constant was determined using the reagents of the Berichrom® heparin assay from Siemens Healthcare Diagnostics. The Berichrom® heparin assay consists of: an F Xa reagent consisting of a lyophilized plasma fraction containing factor Xa, and additives such as Tris, NaCl, EDTA and preservatives, a chromogenic substrate reagent (Z-D-Leu-Gly-Arg-ANBA-methyl-amide), a dilution reagent for reconstitution, and a dextran sulfate reagent consisting of lyophilized dextran sulfate.
After reconstitution in 10 ml of dilution reagent, the dextran sulfate concentration is 0.02 g/l. The F Xa reagent is reconstituted with the reconstituted dextran sulfate reagent. The substrate reagent, after constitution with 2 ml of deionized water, contains 4 mmol/l Z-D-Leu-Gly-Arg-ANBA-methyl-amide. Dilutions of the substrate reagent were prepared with deionized water. The peptide aldehyde ligands prepared according to example 1 were dissolved in water and used as sample. The assays were carried out automatically in a BCS® XP coagulation analyzer (Siemens Healthcare Diagnostics, Marburg, Germany).
A reaction mix was mixed together as follows:
15 μl of sample (peptide aldehyde ligand B-r-G-R—H or B-f-P—R—H), […]
30 μl of substrate reagent (Z-D-Leu-Gly-Arg-ANBA-methyl-amide).
The reaction rate in mE/min was determined on the basis of the increase in optical density of the reaction mix at a wavelength of 405 nm. For this, the optical density of the reaction mixes was determined in a time interval from 10 to 70 seconds.

`N=C(N)NCCC[C@@H](C=O)NC(=O)[C@@H]1CCCN1C(=O)[C@@H](Cc1ccccc1)NC(=O)CCC(=O)NCCCOCCOCCOCCCNC(=O)CCCC[C@@H]1SC[C@@H]2NC(=O)N[C@@H]21` [B-f-P-R-H, biotinyl-Ttds-D-Phe-Pro-Arg-H] was tested, and the 1/Reaction rate (CB-f-P-R-H 0.01019 μM, Csubstrate = 0.5 mM) was 5.617 min/E, the 1/Reaction rate (CB-f-P-R-H 0.01019 μM, Csubstrate = 2 mM) was 1.457 min/E and the 1/Reaction rate (CB-f-P-R-H 0.01019 μM, Csubstrate = 4 mM) was 0.8217 min/E. For the same compound, the 1/Reaction rate (CB-f-P-R-H 0.02038 μM, Csubstrate = 0.5 mM) was 5.565 min/E, the 1/Reaction rate (CB-f-P-R-H 0.02038 μM, Csubstrate = 2 mM) was 1.457 min/E and the 1/Reaction rate (CB-f-P-R-H 0.02038 μM, Csubstrate = 4 mM) was 0.8192 min/E. It also gave a 1/Reaction rate (CB-f-P-R-H 0.04076 μM, Csubstrate = 0.5 mM) of 5.569 min/E, a 1/Reaction rate (CB-f-P-R-H 0.04076 μM, Csubstrate = 2 mM) of 1.454 min/E and a 1/Reaction rate (CB-f-P-R-H 0.04076 μM, Csubstrate = 4 mM) of 0.8174 min/E. It also gave a 1/Reaction rate (CB-f-P-R-H 0.08152 μM, Csubstrate = 0.5 mM) of 5.572 min/E, a 1/Reaction rate (CB-f-P-R-H 0.08152 μM, Csubstrate = 2 mM) of 1.467 min/E and a 1/Reaction rate (CB-f-P-R-H 0.08152 μM, Csubstrate = 4 mM) of 0.8218 min/E. It also gave a 1/Reaction rate (CB-f-P-R-H 0.10190 μM, Csubstrate = 0.5 mM) of 5.619 min/E, a 1/Reaction rate (CB-f-P-R-H 0.10190 μM, Csubstrate = 2 mM) of 1.463 min/E and a 1/Reaction rate (CB-f-P-R-H 0.10190 μM, Csubstrate = 4 mM) of 0.8156 min/E. For the same compound, the 1/Reaction rate (CB-f-P-R-H 0.16304 μM, Csubstrate = 0.5 mM) was 5.675 min/E, the 1/Reaction rate (CB-f-P-R-H 0.16304 μM, Csubstrate = 2 mM) was 1.485 min/E and the 1/Reaction rate (CB-f-P-R-H 0.16304 μM, Csubstrate = 4 mM) was 0.8333 min/E. It also gave a 1/Reaction rate (CB-f-P-R-H 0.20380 μM, Csubstrate = 0.5 mM) of 5.619 min/E, a 1/Reaction rate (CB-f-P-R-H 0.20380 μM, Csubstrate = 2 mM) of 1.473 min/E and a 1/Reaction rate (CB-f-P-R-H 0.20380 μM, Csubstrate = 4 mM) of 0.8238 min/E. It also gave a 1/Reaction rate (CB-f-P-R-H 0.32609 μM, Csubstrate = 0.5 mM) of 5.69 min/E, a 1/Reaction rate (CB-f-P-R-H 0.32609 μM, Csubstrate = 2 mM) of 1.486 min/E and a 1/Reaction rate (CB-f-P-R-H 0.32609 μM, Csubstrate = 4 mM) of 0.832 min/E. The 1/Reaction rate (CB-f-P-R-H 0.40761 μM, Csubstrate = 0.5 mM) was 5.694 min/E, the 1/Reaction rate (CB-f-P-R-H 0.40761 μM, Csubstrate = 2 mM) was 1.489 min/E and the 1/Reaction rate (CB-f-P-R-H 0.40761 μM, Csubstrate = 4 mM) was 0.8338 min/E. It also gave a 1/Reaction rate (CB-f-P-R-H 0.65217 μM, Csubstrate = 0.5 mM) of 5.785 min/E, a 1/Reaction rate (CB-f-P-R-H 0.65217 μM, Csubstrate = 2 mM) of 1.51 min/E and a 1/Reaction rate (CB-f-P-R-H 0.65217 μM, Csubstrate = 4 mM) of 0.8514 min/E. For the same compound, the 1/Reaction rate (CB-f-P-R-H 0.81522 μM, Csubstrate = 0.5 mM) was 5.868 min/E, the 1/Reaction rate (CB-f-P-R-H 0.81522 μM, Csubstrate = 2 mM) was 1.521 min/E and the 1/Reaction rate (CB-f-P-R-H 0.81522 μM, Csubstrate = 4 mM) was 0.8494 min/E. It also gave a 1/Reaction rate (CB-f-P-R-H 1.30435 μM, Csubstrate = 0.5 mM) of 5.959 min/E, a 1/Reaction rate (CB-f-P-R-H 1.30435 μM, Csubstrate = 2 mM) of 1.562 min/E and a 1/Reaction rate (CB-f-P-R-H 1.30435 μM, Csubstrate = 4 mM) of 0.8735 min/E. It also gave a 1/Reaction rate (CB-f-P-R-H 1.63043 μM, Csubstrate = 0.5 mM) of 6.263 min/E, a 1/Reaction rate (CB-f-P-R-H 1.63043 μM, Csubstrate = 2 mM) of 1.591 min/E and a 1/Reaction rate (CB-f-P-R-H 1.63043 μM, Csubstrate = 4 mM) of 0.9021 min/E. For the same compound, the 1/Reaction rate (CB-f-P-R-H 2.60870 μM, Csubstrate = 0.5 mM) was 6.441 min/E, the 1/Reaction rate (CB-f-P-R-H 2.60870 μM, Csubstrate = 2 mM) was 1.672 min/E and the 1/Reaction rate (CB-f-P-R-H 2.60870 μM, Csubstrate = 4 mM) was 0.9317 min/E. For the same compound, the 1/Reaction rate (CB-f-P-R-H 3.26087 μM, Csubstrate = 0.5 mM) was 6.663 min/E, the 1/Reaction rate (CB-f-P-R-H 3.26087 μM, Csubstrate = 2 mM) was 1.715 min/E and the 1/Reaction rate (CB-f-P-R-H 3.26087 μM, Csubstrate = 4 mM) was 0.9448 min/E. It also gave a 1/Reaction rate (CB-f-P-R-H 4.89130 μM, Csubstrate = 0.5 mM) of 7.084 min/E, a 1/Reaction rate (CB-f-P-R-H 4.89130 μM, Csubstrate = 2 mM) of 1.84 min/E and a 1/Reaction rate (CB-f-P-R-H 4.89130 μM, Csubstrate = 4 mM) of 1.026 min/E. The 1/Reaction rate (CB-f-P-R-H 6.52174 μM, Csubstrate = 0.5 mM) was 7.613 min/E, the 1/Reaction rate (CB-f-P-R-H 6.52174 μM, Csubstrate = 2 mM) was 1.979 min/E and the 1/Reaction rate (CB-f-P-R-H 6.52174 μM, Csubstrate = 4 mM) was 1.106 min/E. The 1/Reaction rate (CB-f-P-R-H 8.15217 μM, Csubstrate = 0.5 mM) was 8.377 min/E, the 1/Reaction rate (CB-f-P-R-H 8.15217 μM, Csubstrate = 2 mM) was 2.149 min/E and the 1/Reaction rate (CB-f-P-R-H 8.15217 μM, Csubstrate = 4 mM) was 1.173 min/E. It also gave a 1/Reaction rate (CB-f-P-R-H 13.04348 μM, Csubstrate = 0.5 mM) of 9.739 min/E, a 1/Reaction rate (CB-f-P-R-H 13.04348 μM, Csubstrate = 2 mM) of 2.499 min/E and a 1/Reaction rate (CB-f-P-R-H 13.04348 μM, Csubstrate = 4 mM) of 1.359 min/E. The “Intersect of regression curve 1/reaction rate vs ligand concentration” value (“Intersect … vs ligand concentration” for short) (Csubstrate 0.5 mM) was 5.5934 min/E, the “Slope of regression curve 1/reaction rate vs ligand concentration” value (“Slope … vs ligand concentration” below) (Csubstrate 0.5 mM) was 0.3216 min/E μM and the “Intersect … vs ligand concentration” value (Csubstrate 2 mM) was 1.4588 min/E. For the same compound, the “Slope … vs ligand concentration” value (Csubstrate 2 mM) was 0.0806 min/E μM, the “Intersect … vs ligand concentration” value (Csubstrate 4 mM) was 0.8202 min/E and the “Slope … vs ligand concentration” value (Csubstrate 4 mM) was 0.0421 min/E μM. The Ki (average of three Ki values, read-out: KiM average F Xa binding constant) was 16.9 µM, the Ki (intersection of regression curves Csubstrate 2 and 0.5 mM, read-out: Ki2&3 F Xa binding constant) was 17.2 µM and the Ki (intersection of regression curves Csubstrate 4 and 0.5 mM, read-out: Ki1&3 F Xa binding constant) was 17.1 µM. For the same compound, the Ki (intersection of regression curves Csubstrate 4 and 2 mM, read-out: Ki1&2 F Xa binding constant) was 16.6 µM and the “binding of the peptide aldehyde with F Xa (reversible or irreversible)” value (intersections of regression curves not on the x axis) was “reversible”.
